“And” between values parts separate entries of the source, which are not always exact repeats. Identical values can stand only once. Counter-ions that a name gives are not always drawn.
Key:
[1] = Phase 4 single-dose study: safety and tolerability (adverse events, vital signs, 12-lead ECG, C-SSRS); format: in vivo, human; conditions: for Subjects who discontinued due to AE / Subjects with Mild AE / Subjects with Moderate AE / Subjects with SAE / Subjects with an AE considered related to study drug / Subjects with an AE considered unrelated to study drug / Subjects with at least 1 AE: hydrochloride
Method: Pharmacokinetic analysis of breast milk obtained from both breasts (by pumping) was evaluated prior to dose administration and at intervals up to 72 hours postdose. Blood samples were also collected for plasma solriamfetol quantitation and PK analysis predose and at timepoints up to 72 hours postdose. Solriamfetol breast milk and plasma concentrations were measured using validated bioanalytical methods. Safety was assessed throughout the study by 12-lead ECG, vital sign measurements, the Columbia-Suicide Severity Rating Scale (C-SSRS), and the incidence of adverse events (AE).
Vital signs (blood pressure, pulse rate, temperature, and respiratory rate) were measured with the subject in a seated or supine position and resting for at least 5 minutes prior to taking the measurement. The dominant arm was used for blood pressure and pulse rate measurements. On Day 1, vital signs were collected at predose, and at approximately 2 (blood pressure and pulse) and 4 hours (blood pressure and pulse) postdose.
12-lead ECG was taken with the subject in a supine position and resting for at least 10 minutes prior to taking the measurement. On Day 1, ECGs were collected predose and at approximately 2 hours postdose.
Adverse events were monitored throughout the study by safety assessments, observations, and subject reporting, including the Safety FU telephone call 5-7 days (i.e., Days 9-11) after check-out from the study facility on Day 4, or ET.
The 12-lead ECGs were collected at Screening, Day −1 until Day 4. Single 12-lead ECG was obtained using an ECG machine that automatically calculated the heart rate and measured PR, QRS, QT, and corrected QT interval (QTc) intervals. Any abnormal safety assessments including ECG readings considered clinically significant in the medical and scientific judgment of the investigator were reported as an AE. The investigator had to review the ECG and document it in the source documents. Clinically significant abnormal ECG results reported during Screening were recorded as medical history and those reported after study drug were recorded as AEs.
Safety analyses were based on the Safety Population. The secondary endpoints for evaluating subject safety and tolerance were the incidence of reported AEs and the laboratory test results for all subjects.
Adverse events: Adverse events recorded in the electronic case report forms (eCRFs) were coded to SOC and PT using the Medical Dictionary for Regulatory Activities (MedDRA). Treatment-emergent adverse events (TEAEs) are defined as any event with onset date on or after the first dose of study drug or any ongoing event that worsened in severity after the date of the first dose of study drug or any event that was present at baseline but was subsequently considered drug-related by the investigator through the end of the study. The incidence of TEAEs were presented by severity, relationship to study drug, start and end date, seriousness, and outcome. The investigator assessed the severity and relatedness of each AE to study drug. Columbia-Suicide Severity Rating Scale (C-SSRS) data were summarized at scheduled visits and were listed. Other safety analyses were performed as appropriate.
12 Lead ECG: The number and percentage of subjects who had the following postbaseline clinically notable ECG interval abnormality was summarized: Ventricular rate >100 beats/min or ≤60 beats/min; PR interval ≥200 msec or ≤120 msec; QRS duration ≥100 msec or ≤80 msec; QT interval ≥440 msec or ≤350 msec; QTc Bazett and QTc Fredericia ≥470 msec or ≤330 msec; RR interval ≥1200 msec or ≤600 msec; and QTc Bazette and QTc Fredericia increase from study Baseline Value >30 msec. […]

[2] = Sunosi label, cited from earlier work
[3] = Solriamfetol 150 mg single dose, N = 6
[4] = Solriamfetol 150 mg single dose, N = 6, listed as solriamfetol
[5] = any post-baseline visit/timepoint, 150 mg, N = 6
[6] = healthy male and female patients not postpartum

## NC(=O)OC[C@H](N)Cc1ccccc1 [Solriamfetol, (R)-2-amino-3-phenylpropyl carbamate (APC) hydrochloride]
[1]; 150 mg single dose, N = 6
  abnormal clinically significant ECG findings: No abnormal clinically significant ECG findings
  number of TEAEs of mild intensity (dizziness, headache, agitation; related to study drug): 3 TEAEs
  number of TEAEs of moderate intensity (headache; unrelated to study drug): 1 TEAE
  outcome of TEAEs: resolved
  subjects reporting suicidal ideation or event under Columbia-Classification Algorithm for Suicide Assessment: None
  subjects with abnormal, clinically significant laboratory findings: None
  total number of TEAEs reported: 4 TEAEs
[1]; [3]
  Subjects who discontinued due to AE considered related to study drug: 0 n (%)
  Subjects who discontinued due to AE considered unrelated to study drug: 0 n (%)
  Subjects with Fatal AE: 0 n (%)
  Subjects with Life-threatening AE: 0 n (%)
  Subjects with SAE considered related to study drug: 0 n (%)
  Subjects with SAE considered unrelated to study drug: 0 n (%)
  Subjects with Severe AE: 0 n (%)
  TEAE, PT Agitation: 1 (16.7) n (%)
  TEAE, PT Dizziness: 1 (16.7) n (%)
  TEAE, PT Headache: 2 (33.3) n (%)
  TEAE, SOC Nervous system disorders: 2 (33.3) n (%)
  TEAE, SOC Psychiatric disorders: 1 (16.7) n (%)
  Subjects who discontinued due to AE: 0 n (%)
  Subjects with Mild AE: 2 (33.3) n (%)
  Subjects with Moderate AE: 1 (16.7) n (%)
  Subjects with SAE: 0 n (%)
  Subjects with an AE considered related to study drug: 2 (33.3) n (%)
  Subjects with an AE considered unrelated to study drug: 1 (16.7) n (%)
  Subjects with at least 1 AE: 3 (50.0) n (%)
[1]; [4]
  Subjects who discontinued due to AE: None
  Subjects with Mild AE: 2 (33.3%) n (%)
  Subjects with Moderate AE: 1 (16.7%) n (%)
  Subjects with SAE: No SAEs
  Subjects with an AE considered related to study drug: 2 (33.3%) n (%)
  Subjects with an AE considered unrelated to study drug: 1 (16.7%) n (%)
  Subjects with at least 1 AE: 3 (50%) n (%) and 3 n (%)
[1]; [5]
  Clinically notable Body temperature: Change in body temperature > 1.8% from the subjects baseline temperature recordings: 1 (16.7) n (%)
  Clinically notable Diastolic blood pressure: Average diastolic blood pressure ≥ 95 mmHg or ≤ 60 mmHg: 2 (33.3) n (%)
  Clinically notable ECG mean heart rate: Ventricular rate ≥ 100 beats/min or ≤ 60 beats/min: 2 (33.3) n (%)
  Clinically notable PR interval, single beat: PR interval ≥ 200 msec or ≤ 120 msec: 2 (33.3) n (%)
  Clinically notable Pulse rate: Pulse change by > 20% from the study baseline value/recordings: 2 (33.3) n (%)
  Clinically notable QRS duration, single beat: QRS duration ≥ 100 msec or ≤ 80 msec: 4 (66.7) n (%)
  Clinically notable QT interval, single beat: QT interval ≥ 440 msec or ≤ 350 msec: 1 (16.7) n (%)
  Clinically notable Systolic blood pressure: Blood pressure change by > 20% from the study baseline value/recordings: 1 (16.7) n (%)
[1]; baseline to Day 1 2 hours and 4 hours, Day 2, Day 3, Day 4
  changes in vital sign parameters from baseline: no major changes
[1]; baseline to Day 1 predose and 2 hours, Day 2, Day 3, Day 4
  changes in ECG parameters from baseline: no major changes
[1]; single oral dose 150 mg, 6 healthy postpartum women
  overall safety and tolerability: safe and well tolerated
[2]; [6]
  apparent mean elimination plasma half-life: 7.1 h
  oral bioavailability: approximately 95%
[2]; post-dose under fasted conditions, not postpartum
  median Tmax of peak plasma concentration: 2 h
